{
  "source": "paper PMC8082539",
  "about": "(ACS chemical biology, 2021)",
  "molecular_target": "T1, apocarotenoid oxygenase ACO from Synechocystis (Synechocystis sp. PCC 6803, UniProt P74334)",
  "T1 sequence (P74334 1-490)": "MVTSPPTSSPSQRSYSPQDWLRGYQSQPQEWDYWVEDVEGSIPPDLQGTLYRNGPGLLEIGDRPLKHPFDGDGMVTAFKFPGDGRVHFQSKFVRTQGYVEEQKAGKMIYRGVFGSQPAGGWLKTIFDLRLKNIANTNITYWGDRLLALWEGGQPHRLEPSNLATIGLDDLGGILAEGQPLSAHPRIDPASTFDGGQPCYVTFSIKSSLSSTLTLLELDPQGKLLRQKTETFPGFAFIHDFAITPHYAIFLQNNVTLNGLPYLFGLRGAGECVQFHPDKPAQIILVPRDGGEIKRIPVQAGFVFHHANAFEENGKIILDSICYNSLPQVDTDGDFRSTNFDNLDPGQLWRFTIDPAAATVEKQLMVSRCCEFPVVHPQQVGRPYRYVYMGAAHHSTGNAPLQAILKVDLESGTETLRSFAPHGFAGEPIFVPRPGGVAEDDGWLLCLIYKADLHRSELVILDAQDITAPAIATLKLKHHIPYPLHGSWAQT",
  "test": "HPLC at […] nm, UV-visible spectra",
  "type": "biochemical",
  "settings": "product 3-hydroxy-retinal",
  "data": [
    {"smiles": "CC1=C(/C=C/C(C)=C/C=C/C(C)=C/C=C/C=C(\\C)C=O)C(C)(C)C[C@H](O)C1", "note": "[3-hydroxy-β-apo-12’-carotenal]", "values": [
      {"measurement": "HPLC at 360 nm, UV-visible spectra", "result": "first incubated 3-hydroxy-β-apo-12’-carotenal with the bacterial ACO to produce 3-hydroxy-retinal"}
    ]}
  ]
}
